Reference: ChEMBL document CHEMBL3588822, “Synthetic 1,2,3-triazole-linked glycoconjugates bind with high affinity to human galectin-3” (Bioorg Med Chem, 2015)

Legend:
Galectin-3 [1] = target: T1, Galectin-3 (Homo sapiens, UniProt P17931); experiment: Inhibition of human recombinant wild type galectin 3 after 60 mins by surface plasmon resonance immunosensor assay
Galectin-3 [2] = target: T1, Galectin-3; experiment: Inhibition of human recombinant wild type galectin 3 first carbohydrate recognition domain after 60 mins by surface plasmon resonance immunosensor assay
Galectin-3 [3] = target: T1, Galectin-3; experiment: Inhibition of human recombinant wild type galectin 3 second carbohydrate recognition domain after 60 mins by surface plasmon resonance immunosensor assay

T1 sequence (P17931 whole entry, the tested form may be a part): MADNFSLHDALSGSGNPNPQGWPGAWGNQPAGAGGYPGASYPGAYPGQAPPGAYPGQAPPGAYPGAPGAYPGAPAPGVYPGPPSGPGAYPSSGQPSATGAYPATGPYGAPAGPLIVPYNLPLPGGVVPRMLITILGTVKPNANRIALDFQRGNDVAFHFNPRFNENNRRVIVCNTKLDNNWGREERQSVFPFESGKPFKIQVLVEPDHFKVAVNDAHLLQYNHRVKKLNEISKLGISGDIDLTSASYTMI

SMILES	Kd (Galectin-3 [1])	Kd (Galectin-3 [2])	Kd (Galectin-3 [3])
CO[C@H]1O[C@H](CO)[C@H](O)[C@H](OCc2cn([C@@H](Cc3ccccc3)C(=O)O)nn2)[C@H]1O	7.96 µM	–	–
CO[C@H]1O[C@H](CO)[C@H](O)[C@H](OCc2cn([C@@H](Cc3cc4ccccc4[nH]3)C(=O)O)nn2)[C@H]1O	28.1 µM	–	–
CO[C@H]1O[C@H](CO)[C@H](O)[C@H](OCc2cn([C@@H](CCCCN)C(=O)O)nn2)[C@H]1O	4.56 µM	–	–
CO[C@H]1O[C@H](CO)[C@H](O)[C@H](OCc2cn([C@@H](Cc3ccc(O)cc3)C(=O)O)nn2)[C@H]1O	19.9 µM	–	–
OC[C@H]1O[C@@H](O[C@H]2[C@H](O)[C@@H](O)[C@H](OCCOCCOCCn3cc(CO[C@@H]4O[C@H](CO)[C@@H](O[C@@H]5O[C@H](CO)[C@H](O)[C@H](O)[C@H]5O)[C@H](O)[C@H]4O)nn3)O[C@@H]2CO)[C@H](O)[C@@H](O)[C@H]1O	–	0.5 µM	19 µM

Second part, the compound after the results:

Kd (Galectin-3 [1])	Kd (Galectin-3 [2])	Kd (Galectin-3 [3])	SMILES
88.2 µM	–	–	CO[C@H]1O[C@H](CO)[C@H](O)[C@H](OCc2cn([C@H](C(=O)O)[C@@H](C)O)nn2)[C@H]1O
11.1 µM	–	–	CO[C@H]1O[C@H](CO)[C@H](O)[C@H](OCc2cn([C@@H](CC(=O)O)C(=O)O)nn2)[C@H]1O
